Source: paper PMC12240781 (Frontiers in Pharmacology, 2025)

Tests used:
[1] = cited from earlier work
[2] = pH 5.8, Henderson-Hasselbalch equation
in vitro = conditions: for Papp at 6 h, 25 μg/mL: PAMPA; for Increase in Papp: with probiotic bacteria vs control without probiotics
Procedure: Hydrophobic MultiScreen PVDF microfiltration plates with 96 wells and a pore diameter of 0.45 μm (Millipore, USA) were used as acceptor plates and as supports for the artificial membrane. Each well of the acceptor plate was impregnated with 6 μL of a 2% lecithin solution in n-dodecane, and after solvent evaporation, an artificial membrane was formed. To the corresponding wells of the acceptor plate, 200 μL of PBS buffer (pH 7.4) was added, while 300 μL of the tested compound solution in respective buffer was added to the wells of the donor plate (MultiScreen Transport Receiver Plate, Millipore, USA). All analyses were conducted in triplicate at three different pH values in the donor compartment, while the pH value in the acceptor compartment was always 7.4. The donor plate was aligned with the acceptor plate to initiate incubation. Incubation of samples was performed at 37°C in a sealed PAMPA system to minimize oxygen exposure. […] Before HPLC injection, protein precipitation was achieved by diluting a 50 μL sample from the donor compartment fivefold with acetonitrile, followed by centrifugation at 15,000 rpm for 10 min at +4°C, as described by Đanić et al. ([Ðanić et al., 2019]). Subsequently, 100 μL of the supernatant was directly injected into the HPLC system.
After determining the concentrations of the tested compounds in the donor and acceptor wells, apparent permeability coefficients (Papp) were calculated and expressed in units of cm/s based on the equation: Papp=C×−ln 1−Ca/Ceq where C is a correction factor calculated as: C=Vd×Va/Vd+Va×S×t
The equilibrium drug concentration (Ceq) was determined using mass balance: Ceq=Cd×Vd+Ca×Va/Vd+Va
In these equations, Ca represents the drug concentration in the acceptor compartment after 6 h, Ceq is the equilibrium drug concentration determined based on mass balance, Va and Vd denote the volumes of the acceptor and donor compartments, respectively, measured in milliliters, t represents the time period over which permeability was assessed, expressed in seconds, and S refers to the membrane surface area in square centimeters. The surface area of the artificial membrane was calculated to be 0.24 cm^2, as the acceptor filter membrane plates have a surface area of 0.32 cm^2 and a porosity of 75%, according to the manufacturer’s data.
Sample analysis was performed using high-performance liquid chromatography (HPLC; Dionex) with a diode array detector (DAD). […] Briefly, the chromatographic analysis was performed using a reverse-phase Zorbax Eclipse Plus C18 column (150 mm × 2.1 mm, 5 μm; Agilent Technologies, USA), coupled with a Zorbax Extend C18 guard column (12.5 mm × 2.1 mm, 5 μm; Agilent Technologies, USA). During the analysis, the column temperature was maintained at a constant 25°C, and the injection volume was 20 μL. Elution was performed using an isocratic program, with the mobile phase consisting of 50% AcN and 50% phosphate buffer adjusted to pH 3.3 with orthophosphoric acid, with the addition of 0.5 mL triethylamine as a column modifier. The total analysis time was 5 min, with a constant flow rate of the mobile phase at 0.3 mL/min. […] The eluate was monitored using a UV/DAD detector at a wavelength of 276 nm.

SMILES: Cn1cnc([N+](=O)[O-])c1Sc1ncnc2nc[nH]c12 [azathioprine]
- Biopharmaceutics Classification System (BCS) class ([1]; low solubility and low permeability, ref Bocci et al., 2022): Class IV
- logP ([1]; ref Hansch et al., 1996): 0.1
- Ionization percentage [2]: 0.84%
- Papp at 6 h, 25 μg/mL (in vitro; Permeability [Papp x10^−7] [cm/s]): 0.193 ± 0.014 ×10⁻⁶ cm/s
- Papp at 6 h, 25 μg/mL (in vitro; Permeability class across the PAMPA membrane): < 1 ×10⁻⁶ cm/s
- Papp at 6 h, 25 μg/mL (in vitro; pH 7.4, Permeability [Papp x10^−7] [cm/s]): 0.134 ± 0.005 ×10⁻⁶ cm/s
- Rise of azathioprine levels in the acceptor compartment (in vitro; incubated with probiotics, 6 h): less than 1%
- Increase in Papp (in vitro; pH 5.8): 2.2 fold
- Increase in Papp (in vitro; pH 6.5): 1.9 fold
- Increase in Papp (in vitro; pH 7.4): 2.5 fold
- Increase of azathioprine concentration in the acceptor compartment (in vitro; with probiotics vs control without probiotics (AP vs. A), pH 5.8, 6 h): 18%
- Increase of azathioprine concentration in the acceptor compartment (in vitro; with probiotics vs control without probiotics (AP vs. A), pH 7.4, 6 h): 57%
- Increase of azathioprine concentration in the acceptor compartment (in vitro; with probiotics vs control without probiotics, pH 6.5, 6 h): 26%
